# Experimental data taken from ChEMBL document CHEMBL1201862, “PubChem BioAssay data set” (2004).
# The source made the active and inactive calls.
# How the values were obtained:
# [1] = molecular target: T1, E3 ubiquitin-protein ligase XIAP (Homo sapiens, UniProt P98170); test: Counter Screen using XIAP-Bir3 for Chemical Antagonists of Bir1/2 domains of IAP-family anti-apoptotic proteins. [Related pubchem assays (depositor defined):AID1018, AID1449, AID1514, AID1638, AID1749, AID1750, AID488957, AID488963]
# [2] = molecular target: T1, E3 ubiquitin-protein ligase XIAP; test: small molecules displacing peptide from XIAP – biochemical, IAP family, fluorescence polarization (AID 1018); type: functional
# [3] = Trypanosoma cruzi growth suppression in host cells – NIH3T3 host cells, beta-gal luminescence, confirmation (AID 2044); type: functional, cell-based;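 further: intracellular parasites grown in NIH/3T3 mouse fibroblasts as host cells; luminescent beta-galactosidase reporter signal from transgenic T. cruzi replicating inside host cells; inhibitors lower the luminescence signal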
# [4] = NIH3T3 cell viability loss – ATP luminescence, mouse fibroblasts, counter-screen, dose response (AID 2010); type: functional, cell-based;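 further: cells exposed to compound for about 90 hours before reading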
# [5] = tested on: HEK293; test: cells; type: functional, cell-based; settings: Homo sapiens
# [6] = molecular target: T2, Nuclear receptor subfamily 0 group B member 1 (Homo sapiens, UniProt P51843); test: Luminescence-based cell-based high throughput dose response assay for inhibitors of the orphan nuclear receptor subfamily 0, group B, member 1 (DAX1; NR0B1). [Related pubchem assays (depositor defined):AID504766, AID504790]; type: functional
# T2 sequence (P51843 whole entry): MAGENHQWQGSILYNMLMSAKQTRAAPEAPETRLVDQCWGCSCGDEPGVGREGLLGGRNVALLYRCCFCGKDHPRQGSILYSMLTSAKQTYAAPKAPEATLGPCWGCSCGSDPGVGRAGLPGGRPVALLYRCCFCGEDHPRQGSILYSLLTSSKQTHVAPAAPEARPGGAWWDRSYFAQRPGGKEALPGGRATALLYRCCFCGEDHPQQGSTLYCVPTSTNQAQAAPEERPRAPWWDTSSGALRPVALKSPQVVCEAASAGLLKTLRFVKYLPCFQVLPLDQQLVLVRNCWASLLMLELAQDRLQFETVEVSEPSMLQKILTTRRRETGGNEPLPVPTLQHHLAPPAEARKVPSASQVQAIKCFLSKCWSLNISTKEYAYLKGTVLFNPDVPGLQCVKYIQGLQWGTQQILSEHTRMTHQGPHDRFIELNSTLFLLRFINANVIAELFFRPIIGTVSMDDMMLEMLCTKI
# [7] = molecular target: G-protein coupled receptor 35 (Homo sapiens, UniProt Q9HC97); test: inhibition of zaprinast-stimulated GPR35 beta-arrestin translocation – imaging, U2OS, beta-arrestin-GFP, zaprinast agonist, primary screen (AID 2058); type: functional;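 further: antagonist potency meaning inhibition of agonist-induced arrestin redistribution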
# [8] = molecular target: T3, C-C chemokine receptor type 6 (Homo sapiens, UniProt P51684); test: antagonism of CCR6 beta-arrestin recruitment – cell-based, luminescent beta-arrestin readout, dose response (AID 504728); type: functional
# T3 sequence (P51684 whole entry): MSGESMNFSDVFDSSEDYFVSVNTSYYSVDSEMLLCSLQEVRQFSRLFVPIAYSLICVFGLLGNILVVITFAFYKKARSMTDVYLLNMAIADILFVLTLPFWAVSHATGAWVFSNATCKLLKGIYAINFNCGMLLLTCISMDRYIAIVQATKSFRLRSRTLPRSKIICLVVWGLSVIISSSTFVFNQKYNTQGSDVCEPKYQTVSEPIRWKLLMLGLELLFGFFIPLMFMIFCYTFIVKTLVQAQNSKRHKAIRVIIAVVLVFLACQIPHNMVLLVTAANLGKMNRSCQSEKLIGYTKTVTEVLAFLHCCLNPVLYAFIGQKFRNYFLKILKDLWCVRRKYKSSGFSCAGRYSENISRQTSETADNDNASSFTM
# [9] = molecular target: Beta-galactosidase (Escherichia coli, UniProt Q8VNN2); test: detection-enzyme interference by beta-gal modulators – biochemical, E. coli enzyme, set 3, artefact control for CCR6 antagonist project, dose response (AID 504712); type: functional
# [10] = molecular target: Cytochrome P450 3A4 (Homo sapiens, UniProt P08684);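 further: CYP3A4 tested as one member of a cytochrome P450 panel screen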
# [11] = molecular target: Cytochrome P450 2C9 (Homo sapiens, UniProt P11712)
# [12] = molecular target: Intestinal-type alkaline phosphatase (Homo sapiens, UniProt P09923); test: Dose Response confirmation of uHTS hits from a small molecule inhibitors of human intestinal alkaline phosphatase via a luminescent assay. [Related pubchem assays (depositor defined):AID2544, AID2574]; type: functional
# [13] = molecular target: Cytochrome P450 2C19 (Homo sapiens, UniProt P33261); test: Cytochrome panel assay with activity outcomes. Panel member name: p450-cyp2c19 Compounds with AC50 equal or less than 10 uM are considered active; type: functional; settings: read-out: AC50
# [14] = molecular target: Large T antigen (Simian virus 40, UniProt P03070); type: functional, Betapolyomavirus macacae;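 further: Confirmatory-stage PubChem screen for compounds that inhibit SV40 T antigen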
# [15] = Luminescence Cell-Based Dose Retest to Confirm Inhibitors of Cancer Stem Cells. [Related pubchem assays (depositor defined):AID2717, AID2721]; type: functional; settings: Homo sapiens
# [16] = molecular target: Neurotensin receptor type 1 (Homo sapiens, UniProt P30989); type: functional;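 further: Image-based confirmatory dose-response assay measuring agonist activity at NTR1; NTR1-expressing U2OS osteosarcoma cells imaged for beta-arrestin GFP spot formation; agonist potency where compounds increase beta-arrestin recruitment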
# [17] = molecular target: T4, Histone-lysine N-methyltransferase NSD2 (Homo sapiens, UniProt O96028); type: biochemical
# T4 sequence (O96028 whole entry): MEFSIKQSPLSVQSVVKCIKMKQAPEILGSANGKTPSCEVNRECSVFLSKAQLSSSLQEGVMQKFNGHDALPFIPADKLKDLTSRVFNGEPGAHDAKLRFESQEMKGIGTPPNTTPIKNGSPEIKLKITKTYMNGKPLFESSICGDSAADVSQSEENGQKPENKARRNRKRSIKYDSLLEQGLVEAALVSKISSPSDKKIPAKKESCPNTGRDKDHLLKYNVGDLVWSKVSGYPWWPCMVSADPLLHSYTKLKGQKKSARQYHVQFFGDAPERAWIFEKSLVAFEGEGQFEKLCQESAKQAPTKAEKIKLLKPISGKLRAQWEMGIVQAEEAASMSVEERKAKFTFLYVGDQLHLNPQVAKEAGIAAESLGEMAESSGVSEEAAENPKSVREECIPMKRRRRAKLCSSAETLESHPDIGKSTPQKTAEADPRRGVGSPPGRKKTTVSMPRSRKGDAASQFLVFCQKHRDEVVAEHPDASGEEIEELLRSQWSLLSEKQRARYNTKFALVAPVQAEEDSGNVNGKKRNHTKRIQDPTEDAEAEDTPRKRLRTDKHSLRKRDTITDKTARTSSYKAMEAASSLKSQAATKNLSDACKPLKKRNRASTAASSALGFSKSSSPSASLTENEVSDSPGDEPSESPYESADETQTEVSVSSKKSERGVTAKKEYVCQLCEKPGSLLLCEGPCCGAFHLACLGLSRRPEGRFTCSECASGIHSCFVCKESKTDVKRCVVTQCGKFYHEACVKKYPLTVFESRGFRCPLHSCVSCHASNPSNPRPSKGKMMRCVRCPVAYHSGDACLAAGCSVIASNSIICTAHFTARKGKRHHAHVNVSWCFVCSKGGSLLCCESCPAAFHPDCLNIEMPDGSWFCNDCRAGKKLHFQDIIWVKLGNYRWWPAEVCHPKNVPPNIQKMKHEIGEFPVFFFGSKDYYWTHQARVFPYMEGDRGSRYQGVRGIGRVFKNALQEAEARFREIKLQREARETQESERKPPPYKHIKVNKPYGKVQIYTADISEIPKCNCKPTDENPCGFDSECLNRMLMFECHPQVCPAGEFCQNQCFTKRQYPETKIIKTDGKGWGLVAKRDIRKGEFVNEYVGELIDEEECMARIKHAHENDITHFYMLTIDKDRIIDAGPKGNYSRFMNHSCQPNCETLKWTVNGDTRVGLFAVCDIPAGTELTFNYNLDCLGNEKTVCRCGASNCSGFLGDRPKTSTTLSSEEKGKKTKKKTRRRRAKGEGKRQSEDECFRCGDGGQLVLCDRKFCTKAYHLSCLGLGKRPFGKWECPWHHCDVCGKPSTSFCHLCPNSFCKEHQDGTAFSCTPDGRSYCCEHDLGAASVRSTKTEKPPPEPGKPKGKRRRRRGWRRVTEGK
# [18] = molecular target: T5, Cytochrome P450 1A2 (Homo sapiens, UniProt P05177);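 further: PubChem cytochrome P450 panel assay, CYP1A2 panel member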
# T5 sequence (P05177 whole entry): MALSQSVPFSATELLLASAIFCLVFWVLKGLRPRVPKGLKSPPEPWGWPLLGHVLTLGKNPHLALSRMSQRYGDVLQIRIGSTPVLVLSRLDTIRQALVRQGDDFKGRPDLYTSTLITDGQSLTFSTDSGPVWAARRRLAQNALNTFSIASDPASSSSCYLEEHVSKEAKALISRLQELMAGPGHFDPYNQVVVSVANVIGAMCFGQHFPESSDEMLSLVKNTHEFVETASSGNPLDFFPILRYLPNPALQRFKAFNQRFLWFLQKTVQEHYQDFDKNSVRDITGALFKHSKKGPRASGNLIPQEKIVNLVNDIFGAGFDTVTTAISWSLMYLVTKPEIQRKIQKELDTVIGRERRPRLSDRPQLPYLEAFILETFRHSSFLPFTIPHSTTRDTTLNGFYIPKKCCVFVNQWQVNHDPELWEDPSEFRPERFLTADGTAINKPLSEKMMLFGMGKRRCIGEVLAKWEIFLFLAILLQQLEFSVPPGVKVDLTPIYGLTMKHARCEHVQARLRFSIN
# [19] = molecular target: Dual specificity tyrosine-phosphorylation-regulated kinase 1A (Rattus norvegicus, UniProt Q63470); type: biochemical, Homo sapiens
# [20] = THP-1 cell cytotoxicity, dose response, cytotoxicity control for non-replicating M. tuberculosis project (AID 489025); type: functional
# [21] = cells; type: functional
# [22] = tested on: Streptococcus sp. 'group A'; test: Streptococcus pyogenes SK(-)GAS viability under kanamycin – luminescence, BacTiterGlo, confirmation, counter-screen for streptokinase expression inhibitor project, dose response (AID 1900); type: functional, organism-based
# [23] = molecular target: T6, Streptokinase A (Streptococcus pyogenes serotype M1, UniProt P10520); test: viability-normalized secreted streptokinase activity reduction – plasminogen activation absorbance, OD405, dose response (AID 1914); type: functional, Streptococcus pyogenes M1 GAS;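 further: secreted streptokinase activity via plasminogen activation per viability signal from cell pellet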
# T6 sequence (P10520 whole entry): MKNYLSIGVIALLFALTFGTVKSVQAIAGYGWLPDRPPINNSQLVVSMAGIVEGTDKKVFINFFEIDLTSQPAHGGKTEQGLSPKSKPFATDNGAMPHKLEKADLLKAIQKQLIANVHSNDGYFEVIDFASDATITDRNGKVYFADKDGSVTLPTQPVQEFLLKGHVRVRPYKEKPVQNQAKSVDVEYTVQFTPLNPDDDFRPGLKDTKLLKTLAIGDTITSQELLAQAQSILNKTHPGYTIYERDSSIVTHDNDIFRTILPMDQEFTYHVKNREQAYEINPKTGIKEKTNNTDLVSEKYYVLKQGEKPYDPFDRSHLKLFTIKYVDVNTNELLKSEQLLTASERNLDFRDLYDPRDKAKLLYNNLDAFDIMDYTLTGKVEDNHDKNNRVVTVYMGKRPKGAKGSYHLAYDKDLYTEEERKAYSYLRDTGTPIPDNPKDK
# [24] = tested on: Streptococcus; test: GAS UMAA2166 growth inhibition – luminescence, BacTiterGlo, counter-screen for streptokinase expression inhibitor project, dose response (AID 1915); type: functional, organism-based;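 further: potency for reduction of bacterial viability or growth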
# [25] = molecular target: Heat shock protein HSP 90-alpha (Homo sapiens, UniProt P07900); type: functional, organism-based
# Chain of Cytochrome P450 3A4 (P08684 whole entry): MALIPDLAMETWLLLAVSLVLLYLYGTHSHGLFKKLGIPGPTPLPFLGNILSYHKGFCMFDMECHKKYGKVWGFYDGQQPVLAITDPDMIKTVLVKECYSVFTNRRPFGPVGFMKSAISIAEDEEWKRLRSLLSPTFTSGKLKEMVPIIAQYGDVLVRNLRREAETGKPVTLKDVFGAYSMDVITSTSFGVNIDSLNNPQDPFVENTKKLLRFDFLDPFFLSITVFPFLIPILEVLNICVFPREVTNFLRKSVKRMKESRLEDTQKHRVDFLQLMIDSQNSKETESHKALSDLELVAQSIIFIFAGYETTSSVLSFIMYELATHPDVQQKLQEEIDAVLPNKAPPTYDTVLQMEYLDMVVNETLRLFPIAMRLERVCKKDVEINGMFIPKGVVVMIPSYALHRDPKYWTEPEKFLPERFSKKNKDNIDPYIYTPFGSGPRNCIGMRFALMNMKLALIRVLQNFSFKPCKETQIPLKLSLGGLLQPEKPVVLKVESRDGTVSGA
# T1 sequence (P98170 whole entry): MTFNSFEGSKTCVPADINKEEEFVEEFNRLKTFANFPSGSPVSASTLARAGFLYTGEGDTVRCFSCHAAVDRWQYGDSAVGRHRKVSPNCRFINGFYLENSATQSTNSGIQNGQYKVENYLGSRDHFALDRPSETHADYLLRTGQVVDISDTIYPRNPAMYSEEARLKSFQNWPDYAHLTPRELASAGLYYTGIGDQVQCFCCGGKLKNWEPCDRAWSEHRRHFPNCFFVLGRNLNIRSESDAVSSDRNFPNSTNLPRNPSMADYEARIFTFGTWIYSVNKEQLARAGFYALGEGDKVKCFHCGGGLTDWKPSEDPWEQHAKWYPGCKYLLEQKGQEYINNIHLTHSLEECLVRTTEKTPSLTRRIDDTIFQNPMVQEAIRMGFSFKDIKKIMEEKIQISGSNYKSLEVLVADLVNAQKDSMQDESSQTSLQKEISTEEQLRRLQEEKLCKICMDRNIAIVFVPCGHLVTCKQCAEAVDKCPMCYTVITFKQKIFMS
# Chain of Intestinal-type alkaline phosphatase (P09923 whole entry): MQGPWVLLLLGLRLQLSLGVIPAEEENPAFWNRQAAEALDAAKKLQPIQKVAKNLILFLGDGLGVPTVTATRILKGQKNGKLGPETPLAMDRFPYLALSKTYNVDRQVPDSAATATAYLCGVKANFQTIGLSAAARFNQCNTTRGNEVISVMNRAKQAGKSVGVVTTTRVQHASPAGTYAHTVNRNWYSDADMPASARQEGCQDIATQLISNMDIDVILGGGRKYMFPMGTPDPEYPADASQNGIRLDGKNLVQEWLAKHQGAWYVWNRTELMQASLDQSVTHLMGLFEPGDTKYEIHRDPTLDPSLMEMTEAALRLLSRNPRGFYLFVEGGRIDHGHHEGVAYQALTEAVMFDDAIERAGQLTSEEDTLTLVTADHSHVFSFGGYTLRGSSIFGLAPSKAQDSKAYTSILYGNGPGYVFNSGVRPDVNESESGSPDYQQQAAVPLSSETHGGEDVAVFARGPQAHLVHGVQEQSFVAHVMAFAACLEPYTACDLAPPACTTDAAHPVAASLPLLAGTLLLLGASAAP
# Chain of Cytochrome P450 2C19 (P33261 whole entry): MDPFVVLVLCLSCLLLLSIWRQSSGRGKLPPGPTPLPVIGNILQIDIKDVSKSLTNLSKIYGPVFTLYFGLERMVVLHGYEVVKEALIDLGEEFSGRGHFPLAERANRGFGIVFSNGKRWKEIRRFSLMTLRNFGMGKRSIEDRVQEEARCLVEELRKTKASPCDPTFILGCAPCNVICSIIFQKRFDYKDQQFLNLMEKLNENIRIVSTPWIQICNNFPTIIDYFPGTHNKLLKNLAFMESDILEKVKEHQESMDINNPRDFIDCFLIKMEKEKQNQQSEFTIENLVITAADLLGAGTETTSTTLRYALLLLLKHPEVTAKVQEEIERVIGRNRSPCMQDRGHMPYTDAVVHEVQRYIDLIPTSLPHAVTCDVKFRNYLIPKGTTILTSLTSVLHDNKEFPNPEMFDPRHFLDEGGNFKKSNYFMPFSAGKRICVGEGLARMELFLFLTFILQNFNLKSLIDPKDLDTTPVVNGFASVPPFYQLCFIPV
# Chain of Beta-galactosidase (Q8VNN2 whole entry): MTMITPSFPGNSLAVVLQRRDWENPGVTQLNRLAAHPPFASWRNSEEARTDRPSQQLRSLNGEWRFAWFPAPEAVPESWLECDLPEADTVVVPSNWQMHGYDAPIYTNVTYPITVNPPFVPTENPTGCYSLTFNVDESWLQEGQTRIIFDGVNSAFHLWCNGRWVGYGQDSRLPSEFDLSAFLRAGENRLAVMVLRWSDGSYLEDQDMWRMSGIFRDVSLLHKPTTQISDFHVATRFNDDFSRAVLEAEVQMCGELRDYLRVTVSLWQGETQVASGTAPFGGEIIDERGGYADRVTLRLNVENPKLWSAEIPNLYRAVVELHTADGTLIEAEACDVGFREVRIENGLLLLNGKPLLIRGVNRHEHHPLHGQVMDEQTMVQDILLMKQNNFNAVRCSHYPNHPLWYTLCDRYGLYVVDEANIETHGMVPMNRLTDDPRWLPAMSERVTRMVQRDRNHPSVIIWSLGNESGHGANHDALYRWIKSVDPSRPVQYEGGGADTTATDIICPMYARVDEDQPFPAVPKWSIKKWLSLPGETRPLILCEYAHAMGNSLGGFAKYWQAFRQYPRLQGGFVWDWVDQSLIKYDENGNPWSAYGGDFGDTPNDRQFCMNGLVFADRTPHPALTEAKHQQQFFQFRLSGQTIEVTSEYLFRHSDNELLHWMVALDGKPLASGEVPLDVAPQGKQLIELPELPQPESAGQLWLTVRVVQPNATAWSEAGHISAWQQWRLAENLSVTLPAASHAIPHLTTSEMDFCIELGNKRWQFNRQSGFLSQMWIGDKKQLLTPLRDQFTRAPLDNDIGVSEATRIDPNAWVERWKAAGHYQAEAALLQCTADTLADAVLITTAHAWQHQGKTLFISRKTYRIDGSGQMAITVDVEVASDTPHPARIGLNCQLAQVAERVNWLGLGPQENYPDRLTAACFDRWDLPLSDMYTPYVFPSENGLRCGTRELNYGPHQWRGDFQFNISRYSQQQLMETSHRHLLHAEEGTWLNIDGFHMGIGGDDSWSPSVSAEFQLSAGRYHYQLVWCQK
# Chain of Cytochrome P450 2C9 (P11712 whole entry): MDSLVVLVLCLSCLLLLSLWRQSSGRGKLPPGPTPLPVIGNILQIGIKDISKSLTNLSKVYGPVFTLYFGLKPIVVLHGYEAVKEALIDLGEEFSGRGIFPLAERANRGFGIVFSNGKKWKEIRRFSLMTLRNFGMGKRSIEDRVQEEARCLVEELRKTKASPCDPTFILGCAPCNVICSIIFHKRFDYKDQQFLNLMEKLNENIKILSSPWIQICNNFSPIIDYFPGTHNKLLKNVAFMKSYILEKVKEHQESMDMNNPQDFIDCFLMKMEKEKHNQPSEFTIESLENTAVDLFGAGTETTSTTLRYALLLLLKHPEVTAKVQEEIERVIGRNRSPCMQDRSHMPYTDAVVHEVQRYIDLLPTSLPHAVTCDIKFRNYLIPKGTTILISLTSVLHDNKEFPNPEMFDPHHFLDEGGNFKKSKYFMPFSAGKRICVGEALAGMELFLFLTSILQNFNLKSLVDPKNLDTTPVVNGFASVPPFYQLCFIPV
# Chain of G-protein coupled receptor 35 (Q9HC97 whole entry): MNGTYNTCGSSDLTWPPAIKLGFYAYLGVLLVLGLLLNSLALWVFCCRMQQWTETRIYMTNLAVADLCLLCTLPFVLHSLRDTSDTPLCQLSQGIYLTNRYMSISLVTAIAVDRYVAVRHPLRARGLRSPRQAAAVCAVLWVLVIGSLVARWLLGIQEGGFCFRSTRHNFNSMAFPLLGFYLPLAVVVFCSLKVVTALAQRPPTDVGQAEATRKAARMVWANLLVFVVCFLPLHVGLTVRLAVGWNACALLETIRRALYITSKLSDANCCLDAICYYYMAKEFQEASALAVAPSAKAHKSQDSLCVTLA
# Chain of Large T antigen (P03070 whole entry): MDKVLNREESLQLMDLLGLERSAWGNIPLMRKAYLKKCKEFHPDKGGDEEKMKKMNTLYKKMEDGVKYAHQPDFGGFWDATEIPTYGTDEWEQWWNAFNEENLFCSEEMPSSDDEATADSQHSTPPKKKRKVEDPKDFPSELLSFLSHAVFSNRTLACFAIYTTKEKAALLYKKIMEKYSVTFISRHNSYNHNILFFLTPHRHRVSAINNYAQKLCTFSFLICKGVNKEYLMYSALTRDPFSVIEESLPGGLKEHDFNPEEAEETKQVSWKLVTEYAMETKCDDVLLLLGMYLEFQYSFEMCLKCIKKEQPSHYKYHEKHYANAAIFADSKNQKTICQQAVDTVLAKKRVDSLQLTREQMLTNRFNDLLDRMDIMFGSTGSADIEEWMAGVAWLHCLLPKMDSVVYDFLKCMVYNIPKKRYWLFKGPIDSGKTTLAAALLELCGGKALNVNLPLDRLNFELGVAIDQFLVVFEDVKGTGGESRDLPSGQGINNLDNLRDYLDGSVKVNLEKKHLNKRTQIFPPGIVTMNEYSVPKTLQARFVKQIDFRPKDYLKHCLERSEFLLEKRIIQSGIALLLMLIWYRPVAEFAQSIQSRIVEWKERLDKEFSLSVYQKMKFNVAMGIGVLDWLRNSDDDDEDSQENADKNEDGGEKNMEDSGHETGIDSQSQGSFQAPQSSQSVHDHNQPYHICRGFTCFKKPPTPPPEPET
# Chain of Neurotensin receptor type 1 (P30989 whole entry): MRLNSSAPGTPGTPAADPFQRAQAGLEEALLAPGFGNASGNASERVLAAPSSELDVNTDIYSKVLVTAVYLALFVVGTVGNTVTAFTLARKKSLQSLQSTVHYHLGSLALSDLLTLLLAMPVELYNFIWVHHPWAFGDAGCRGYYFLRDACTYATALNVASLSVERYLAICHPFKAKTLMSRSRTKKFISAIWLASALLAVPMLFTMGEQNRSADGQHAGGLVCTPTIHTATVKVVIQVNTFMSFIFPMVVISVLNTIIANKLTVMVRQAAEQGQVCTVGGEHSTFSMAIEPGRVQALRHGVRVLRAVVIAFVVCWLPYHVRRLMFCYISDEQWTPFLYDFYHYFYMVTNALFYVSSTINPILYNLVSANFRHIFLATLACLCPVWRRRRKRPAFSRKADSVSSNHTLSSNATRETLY
structure (smiles),measurement,setting,value
S=C(Nc1ccc(Br)cc1)N1CCn2cccc2C1c1cccnc1 (stereo unspecified),IC50,[1],> 100 µM (inactive)
same,IC50,[2],> 100 µM (not active)
same,EC50,[3],605 nM (active)
same,EC50,[4],> 60 µM (not active)
Cn1c(NCc2ccccc2Cl)nc2ccccc21,IC50,[5],> 67.6 µM (inactive)
same,IC50,[6],> 67.6 µM (inactive)
CS(=O)(=O)N1N=C(c2ccccc2)CC1c1ccc2c(c1)OCO2 (stereo unspecified),IC50,[7],1.42 µM (active)
COc1ccccc1C1SCCN1S(=O)(=O)c1cccc(C(F)(F)F)c1 (stereo unspecified),IC50,[1],> 100 µM (inactive)
same,IC50,[2],> 100 µM (not active)
Cc1ccc(C(=C2C3C=CC2C2C(=O)NC(=O)C32)c2ccc(C)cc2)cc1 (stereo unspecified),IC50,[8],> 66.6 µM (inactive)
same,IC50,[9],> 66.6 µM (inactive)
CC(C)NC(=O)N1CCC2(CC1)CCN(C(=O)c1cc(C(F)(F)F)cc(C(F)(F)F)c1)CC2,AC50,[10],inconclusive
same,AC50,[11],inconclusive
COc1ccc(-c2cc3nc(C)cc(C)n3n2)cc1,IC50,[5],> 67.5 µM (inactive)
same,IC50,[6],> 67.5 µM (inactive)
COc1cc(/C=C/C(=O)OCC(=O)NC(=O)NC2CCCCC2)ccc1OC(F)F,IC50,[12],> 100 µM (inactive)
Cc1c2c(nc3c(C(=O)NC4CCCC4)cnn13)CCCC2,AC50,[13],39.8 µM (inconclusive)
same,AC50,[10],inconclusive
COc1ccccc1C1CN(c2ccccc2)N=C1c1cccs1 (stereo unspecified),IC50,[12],> 100 µM (inactive)
COc1cc(/C=C2\C(=O)ON=C2c2ccc(Cl)cc2)ccc1O,IC50,[14],14.6 µM (active)
same,AC50,[15],1.76 µM (active)
same,EC50,[16],12.1 µM (active)
same,AC50,[17],> 20 µM (inactive)
O=C(c1cc(-c2ccccc2Cl)on1)N1CCN(C(=O)c2ccco2)CC1,AC50,[13],25.1 µM (inconclusive)
same,AC50,[18],25.1 µM (inconclusive)
same,AC50,[10],inconclusive
same,AC50,[11],inconclusive
C=C(C)[C@@H](O)COc1c2ccoc2cc2oc(=O)ccc12,AC50,[19],9.08 µM (active)
CC1=C(/C=C/C(C)=N\NC(=O)c2ccncc2)C(C)(C)CCC1,CC50,[20],> 40 µM (active)
same,IC50,[8],> 66.6 µM (inactive)
same,IC50,[9],> 66.6 µM (inactive)
same,IC50,[21],610 nM (active)
Oc1ccc(/C=N/N(Cc2ccccc2)c2ccccc2)cc1,EC50,[22],7.47 µM (active)
same,EC50,[23],> 150 µM (not active)
same,EC50,[24],9.38 µM (active)
same,AC50,[25],9.12 µM (active)
